Type in all cases: biochemical
The target of test [1] is T1, human JAK1 (a.a. 837-1142) (Homo sapiens, UniProt P23458).
T1 construct: human JAK1 (a.a. 837-1142); His tag (N); made in house; host or cells: insect cells (baculovirus)
Put plainly: In vitro JAK kinase assay (HTRF, phosphorylation of a biotinylated peptide), JAK1. The settings on record: read-out: JAK1 IC50. A digest of the protocol: (§1)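 Phosphorylation of a biotinylated peptide by the JAK kinase domain, detected by HTRF with Eu-Py20 and SA-APC. ATP was 90 μM for JAK1, 30 μM for JAK2 and 3 μM for JAK3. Reactions ran 1 h at room temperature and were stopped with EDTA, followed by 40 min antibody binding.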
(Time-resolved FRET reads energy transfer from a long-lived donor to a nearby acceptor.)

The target in test [2] is T2, human JAK2 (a.a. 828-1132) (Homo sapiens, UniProt O60674).
T2 construct: JAK2 (a.a. 828-1132); His tag (N); made in house; host or cells: insect cells (baculovirus)
T2 sequence (O60674 828-1132): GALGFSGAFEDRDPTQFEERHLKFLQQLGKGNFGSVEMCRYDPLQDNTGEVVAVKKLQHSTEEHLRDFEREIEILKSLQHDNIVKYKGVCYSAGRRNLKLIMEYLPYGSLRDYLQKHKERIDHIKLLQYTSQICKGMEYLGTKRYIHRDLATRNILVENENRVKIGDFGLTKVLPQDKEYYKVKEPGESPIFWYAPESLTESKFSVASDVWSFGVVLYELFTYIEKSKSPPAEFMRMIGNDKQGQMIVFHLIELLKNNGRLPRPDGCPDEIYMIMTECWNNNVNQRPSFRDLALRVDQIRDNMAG
Briefly: In vitro JAK kinase assay (HTRF, phosphorylation of a biotinylated peptide), JAK2. A digest of the protocol:
as §1

Test [3] deals with T3, human JAK3 (a.a. 781-1124) (Homo sapiens, UniProt P52333).
T3 construct: JAK3 (a.a. 781-1124); His tag (N); made in house; host or cells: insect cells (baculovirus)
T3 sequence (P52333 781-1124): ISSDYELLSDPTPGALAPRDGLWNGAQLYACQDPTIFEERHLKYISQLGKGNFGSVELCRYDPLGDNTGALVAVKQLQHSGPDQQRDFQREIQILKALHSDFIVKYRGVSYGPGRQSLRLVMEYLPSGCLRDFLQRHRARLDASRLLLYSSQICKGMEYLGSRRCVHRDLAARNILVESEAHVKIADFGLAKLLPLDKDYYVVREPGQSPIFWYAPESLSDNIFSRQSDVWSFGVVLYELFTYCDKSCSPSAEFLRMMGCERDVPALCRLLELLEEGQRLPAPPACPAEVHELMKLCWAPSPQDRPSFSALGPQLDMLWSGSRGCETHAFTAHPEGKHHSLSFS
Briefly: In vitro JAK kinase assay (HTRF, phosphorylation of a biotinylated peptide), JAK3. An outline of the steps:
as §1

In another test the target is TYK2 (Homo sapiens, UniProt P29597). Briefly: TYK2 kinase inhibition (Table A1).
TYK2, sequence (P29597 whole entry): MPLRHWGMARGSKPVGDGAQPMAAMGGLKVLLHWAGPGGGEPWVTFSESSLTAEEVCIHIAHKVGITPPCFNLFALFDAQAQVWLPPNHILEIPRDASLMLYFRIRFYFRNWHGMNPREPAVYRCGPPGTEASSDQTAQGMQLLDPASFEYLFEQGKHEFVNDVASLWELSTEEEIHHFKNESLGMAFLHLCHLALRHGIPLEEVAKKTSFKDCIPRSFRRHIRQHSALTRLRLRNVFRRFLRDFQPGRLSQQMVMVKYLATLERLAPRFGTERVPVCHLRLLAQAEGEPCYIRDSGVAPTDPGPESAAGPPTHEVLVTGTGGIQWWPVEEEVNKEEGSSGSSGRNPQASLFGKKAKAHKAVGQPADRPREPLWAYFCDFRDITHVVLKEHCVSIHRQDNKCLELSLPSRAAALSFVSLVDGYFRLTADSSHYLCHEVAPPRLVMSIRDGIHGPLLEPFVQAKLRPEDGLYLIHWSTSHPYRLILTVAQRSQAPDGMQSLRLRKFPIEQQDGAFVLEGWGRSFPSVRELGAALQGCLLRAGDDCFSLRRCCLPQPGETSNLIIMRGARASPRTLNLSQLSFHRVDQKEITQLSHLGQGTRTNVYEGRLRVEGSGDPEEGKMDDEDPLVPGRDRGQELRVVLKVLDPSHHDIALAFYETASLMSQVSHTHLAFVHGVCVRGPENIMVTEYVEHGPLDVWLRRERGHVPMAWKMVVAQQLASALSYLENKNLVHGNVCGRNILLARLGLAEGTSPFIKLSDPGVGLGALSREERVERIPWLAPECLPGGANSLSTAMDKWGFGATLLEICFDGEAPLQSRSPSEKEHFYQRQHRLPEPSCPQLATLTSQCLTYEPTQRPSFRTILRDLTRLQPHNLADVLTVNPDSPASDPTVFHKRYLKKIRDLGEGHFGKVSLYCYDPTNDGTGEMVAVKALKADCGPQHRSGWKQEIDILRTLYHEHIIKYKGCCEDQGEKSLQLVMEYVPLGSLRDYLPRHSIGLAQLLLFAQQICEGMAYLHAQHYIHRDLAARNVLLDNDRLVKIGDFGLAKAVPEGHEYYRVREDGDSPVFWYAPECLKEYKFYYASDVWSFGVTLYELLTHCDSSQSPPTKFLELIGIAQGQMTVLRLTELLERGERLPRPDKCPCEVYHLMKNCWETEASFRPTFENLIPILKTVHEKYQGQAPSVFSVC
For test [4], the target named is T4, Recombinant Human Anaplastic Lymphoma Kinase (Homo sapiens, UniProt Q9UM73).
T4 construct: purchased Invitrogen, Carlsbad, Calif
T4 sequence (Q9UM73 19-1620): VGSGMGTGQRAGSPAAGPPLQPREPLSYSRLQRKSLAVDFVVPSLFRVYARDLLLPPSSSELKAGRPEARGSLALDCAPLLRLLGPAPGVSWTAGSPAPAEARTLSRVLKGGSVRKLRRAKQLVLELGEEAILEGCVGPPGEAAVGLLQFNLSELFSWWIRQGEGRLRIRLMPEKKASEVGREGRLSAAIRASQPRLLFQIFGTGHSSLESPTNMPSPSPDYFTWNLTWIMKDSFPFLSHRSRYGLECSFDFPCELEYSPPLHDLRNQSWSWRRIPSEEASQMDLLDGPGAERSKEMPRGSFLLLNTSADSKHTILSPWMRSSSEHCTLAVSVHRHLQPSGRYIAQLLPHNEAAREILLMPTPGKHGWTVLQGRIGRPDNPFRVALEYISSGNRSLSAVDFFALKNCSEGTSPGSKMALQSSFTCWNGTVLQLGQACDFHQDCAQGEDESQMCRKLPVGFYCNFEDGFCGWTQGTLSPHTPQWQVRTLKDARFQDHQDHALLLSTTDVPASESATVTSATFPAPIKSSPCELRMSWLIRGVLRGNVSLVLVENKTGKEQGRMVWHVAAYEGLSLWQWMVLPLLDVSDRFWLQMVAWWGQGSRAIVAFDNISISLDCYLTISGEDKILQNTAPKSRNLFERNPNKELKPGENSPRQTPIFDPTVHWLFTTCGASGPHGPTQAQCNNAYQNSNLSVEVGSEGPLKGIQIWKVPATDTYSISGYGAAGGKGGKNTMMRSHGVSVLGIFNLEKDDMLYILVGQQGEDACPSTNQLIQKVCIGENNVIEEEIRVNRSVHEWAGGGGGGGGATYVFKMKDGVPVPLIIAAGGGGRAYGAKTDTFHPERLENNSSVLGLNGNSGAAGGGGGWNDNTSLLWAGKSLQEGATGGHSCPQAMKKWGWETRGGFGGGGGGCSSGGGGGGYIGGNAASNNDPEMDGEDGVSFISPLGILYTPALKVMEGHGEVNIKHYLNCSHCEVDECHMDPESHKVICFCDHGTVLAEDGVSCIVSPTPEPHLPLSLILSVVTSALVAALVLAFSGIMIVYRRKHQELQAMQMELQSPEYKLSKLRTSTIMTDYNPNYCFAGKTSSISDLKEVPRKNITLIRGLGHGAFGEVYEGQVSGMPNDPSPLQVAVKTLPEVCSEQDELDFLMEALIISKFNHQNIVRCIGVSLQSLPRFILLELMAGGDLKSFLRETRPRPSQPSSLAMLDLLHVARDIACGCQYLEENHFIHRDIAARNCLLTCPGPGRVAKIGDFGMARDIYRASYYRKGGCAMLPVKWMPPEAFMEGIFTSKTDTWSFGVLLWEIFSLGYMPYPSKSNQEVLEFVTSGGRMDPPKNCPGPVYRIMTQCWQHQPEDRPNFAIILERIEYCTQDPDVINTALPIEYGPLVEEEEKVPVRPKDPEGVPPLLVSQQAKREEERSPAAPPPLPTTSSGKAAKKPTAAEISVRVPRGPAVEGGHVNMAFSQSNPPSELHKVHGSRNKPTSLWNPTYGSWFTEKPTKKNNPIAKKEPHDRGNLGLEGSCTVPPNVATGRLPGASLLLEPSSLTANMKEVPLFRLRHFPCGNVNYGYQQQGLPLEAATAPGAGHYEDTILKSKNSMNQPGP
Put plainly: ALK HTRF kinase assay. An outline of the steps:
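Biotinylated peptide substrate, recombinant human ALK; detection via europium-chelate antibody to phosphotyrosine paired with streptavidin-APC. Potency expressed as IC50 from four-parameter curve fitting.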

Setting [5] is: compound at a concentration of 500 nM or 1 mM (not specified), cells shown as percentage.
Setting [6] is: method AA1 (90 μM ATP) or AA2 (1000 μM ATP), not stated per value.
The mark [7] stands for this setting: method AA1 (30 μM ATP) or AA2 (1000 μM ATP), not stated per value.
The mark [8] stands for this setting: method AA1 (3 μM ATP) or AA2 (1000 μM ATP), not stated per value.
Setting [9] is: compound at 500 nM or 1 mM, 90 μM ATP.
Setting [10] is: Table B1, cells without percent sign.

pIC50: −log10 of the molar value. Where a name gives a salt, the structure may show the parent alone. Read-outs that look alike come from different tables or passages of the source. A value given as a limit tells only on which side of the number the result lay.

Usually pIC50 stands for −log10 of the IC50, conventionally taken in molar units.

T1 sequence (P23458 849-1154): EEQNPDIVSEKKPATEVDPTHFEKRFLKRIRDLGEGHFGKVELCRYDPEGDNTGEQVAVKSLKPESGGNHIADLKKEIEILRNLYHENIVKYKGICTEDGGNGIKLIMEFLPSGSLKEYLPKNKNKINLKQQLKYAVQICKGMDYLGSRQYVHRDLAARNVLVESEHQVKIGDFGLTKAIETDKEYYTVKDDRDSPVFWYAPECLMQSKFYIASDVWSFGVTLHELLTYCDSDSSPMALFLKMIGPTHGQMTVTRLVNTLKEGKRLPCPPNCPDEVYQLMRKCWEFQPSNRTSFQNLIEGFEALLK

For the compound `CC(C)NC(=O)Nc1ccc2cc1CCc1cccc(c1)Nc1ncc(Cl)c(n1)N2` [Example B116, N-[6-Chloro-2,4,8,22-tetraazatetracyclo[14.3.1.1(3,7).1(9,13)]docosa-1(20), 3(22),4,6,9(21),10,12,16,18-nonaen-12-yl]-N′-isopropylurea trifluoroacetate], the pIC50 in test [1] (Table B1) was 8.51; in test [2] (Table B1), 8.46; in test [3] (Table B1), 7.59; on TYK2 (Table B1), 8.00. In test [4] (setting [5]), the “ALK % of inhibition at a concentration of 500 nM or 1 mM” value (shortened to “ALK % of inhibition”) amounted to 20%.

As for `O=S1(=O)CCOc2cccc(c2)Nc2ncc(Cl)c(n2)Nc2cccc1c2` [Example D14, 6-Chloro-17-oxa-14-thia-2,4,8,24-tetraazatetracyclo[16.3.1.1(3,7).1(9,13)]tetracosa-1(22),3(24),4,6,9(23),10,12,18,20-nonaene 14,14-dioxide trifluoroacetate], the pIC50 in test [1] (Table D1) was 8.66; in test [2] (Table D1), 8.66; in test [3] (Table D1), 7.96; at TYK2 (Table D1), 8.30; in test [4] (Table D1, 90 μM ATP), 6.14.

On to `O=C(CC1CCNCC1)Nc1ccc2cc1CCc1cncc(c1)Nc1ncc(Cl)c(n1)N2` [Example A71, N-[6-Chloro-2,4,8,18,22-pentaazatetracyclo[14.3.1.1(3,7).1(9,13)]docosa-1(20),3(22),4,6,9(21),10,12,16,18-nonaen-12-yl]-2-piperidin-4-ylacetamide tris(trifluoroacetate)], for which the pIC50 was 7.72 in test [1] (setting [6]), 7.16 in test [2] (setting [7]), 6.95 in test [3] (setting [8]) and 7.24 at TYK2. In addition, the “ALK % of inhibition” value in test [4] (setting [9]) was 26%.

As for `Cc1cc(C(=O)N2CCC(CC(=O)Nc3ccc4cc3CCc3cccc(c3)Nc3ncc(Cl)c(n3)N4)CC2)n[nH]1` [Example A175, N-[6-Chloro-2,4,8,22-tetraazatetracyclo[14.3.1.1(3,7).1(9,13)]docosa-1(20),3(22),4,6,9(21),10,12,16,18-nonaen-12-yl]-2-{1-[(5-methyl-1H-pyrazol-3-yl)carbonyl]piperidin-4-yl}acetamide bis(trifluoroacetate)], the pIC50 is 9.00 in test [1] (setting [6]), 7.89 in test [2] (setting [7]), less than 6.70 in test [3] (setting [8]) and 8.74 on TYK2. In test [4] (setting [9]), the “ALK % of inhibition” value is given as 28%.

For `Oc1cc2cc(c1)Nc1nc(ncc1Cl)Nc1cccc(c1)CC2` [Example A22, 6-Chloro-2,4,8,22-tetraazatetracyclo[14.3.1.1(3,7).1(9,13)]docosa-1(20),3(22),4,6,9(21),10,12,16,18-nonaen-11-ol trifluoroacetate], the pIC50 in test [1] (setting [6]) was 7.96; in test [2] (setting [7]), 8.21; in test [3] (setting [8]) it was 8.00; against TYK2 it was 7.66. The “ALK % of inhibition” value in test [4] (setting [9]) was 54%.

Consider `N#Cc1cccc(S(=O)(=O)Nc2ccc3cc2CCc2cccc(c2)Nc2ncc(Cl)c(n2)N3)c1` [Example B153, N-[6-Chloro-2,4,8,22-tetraazatetracyclo[14.3.1.1(3,7).1(9,13)]docosa-1(20),3(22),4,6,9(21),10,12,16,18-nonaen-12-yl]-3-cyanobenzenesulfonamide trifluoroacetate], for which the negative-log IC50 (pIC50) in test [1] (Table B1) is 9.16; in test [2] (Table B1) it was 10.00; in test [3] (Table B1), 9.32; against TYK2 (Table B1), 9.36; in test [4] (setting [10]) it was 7.15.

In the case of `COc1ccc(NC(=O)Nc2ccc3cc2CCc2cccc(c2)Nc2ncc(Cl)c(n2)N3)cc1` [Example B101, N-[6-Chloro-2,4,8,22-tetraazatetracyclo[14.3.1.1(3,7).1(9,13)]docosa-1(20), 3(22),4,6,9(21),10,12,16,18-nonaen-12-yl]-N′-(4-methoxyphenyl)urea trifluoroacetate], the pIC50 was 8.35 in test [1] (Table B1), 8.00 in test [2] (Table B1), 7.59 in test [3] (Table B1) and 7.72 against TYK2 (Table B1). The “ALK % of inhibition” value in test [4] (setting [5]) came to 39%.

Take `O=C(Nc1ccc2cc1CCc1cccc(c1)Nc1ncc(Cl)c(n1)N2)c1cccnc1` [Example B30, N-[6-Chloro-2,4,8,22-tetraazatetracyclo[14.3.1.1(3,7).1(9,13)]docosa-1(20), 3(22),4,6,9(21),10,12,16,18-nonaen-12-yl]nicotinamide bis(trifluoroacetate)]: the pIC50 in test [1] (Table B1) is 9.06; in test [2] (Table B1) it was 9.11; in test [3] (Table B1) it was 8.54; against TYK2 (Table B1) it was 8.60; in test [4] (setting [10]) it was 6.59.

As for `CN1CCOc2cc(S(=O)(=O)Nc3ccc4cc3CCc3cccc(c3)Nc3ncc(Cl)c(n3)N4)ccc21` [Example B165, N-[6-Chloro-2,4,8,22-tetraazatetracyclo[14.3.1.1(3,7).1(9,13)]docosa-1(20),3(22),4,6,9(21),10,12,16,18-nonaen-12-yl]-4-methyl-3,4-dihydro-2H-1,4-benzoxazine-7-sulfonamide trifluoroacetate], the pIC50 in test [1] (Table B1) was 7.89; in test [2] (Table B1), 8.00; in test [3] (Table B1), 7.08; at TYK2 (Table B1), 7.70. Moreover, the “ALK % of inhibition” value in test [4] (setting [5]) came to 10%.

For `O=S(=O)(Nc1ccc2cc1CCc1cccc(c1)Nc1ncc(Cl)c(n1)N2)c1cccc2cccnc12` [Example B160, N-[6-Chloro-2,4,8,22-tetraazatetracyclo[14.3.1.1(3,7).1(9,13)]docosa-1(20), 3(22),4,6,9(21),10,12,16,18-nonaen-12-yl]quinoline-8-sulfonamide bis(trifluoroacetate)], the pIC50 in test [1] (Table B1) is 7.92; in test [2] (Table B1), 8.19; in test [3] (Table B1) it was 6.99; at TYK2 (Table B1), 8.62. The “ALK % of inhibition” value in test [4] (setting [5]) is given as 4.6%.

For `Clc1cnc2nc1Nc1cccc(c1)CCSc1cccc(c1)N2` [Example D19, 6-Chloro-16-thia-2,4,8,23-tetraazatetracyclo[15.3.1.1(3,7).1(9,13)]tricosa-1(21),3(23),4,6,9(22),10,12,17,19-nonaene hydrochloride], the pIC50 in test [1] (Table D1) was 6.82; in test [2] (Table D1), 7.80; in test [3] (Table D1) it was 7.41; against TYK2 (Table D1), 6.83; in test [4] (Table D1, 90 μM ATP), 6.25.

In the case of `CC(C)(C)OC(=O)NCCNC(=O)Nc1ccc2cc1CCc1cccc(c1)Nc1ncc(Cl)c(n1)N2` [Example B185, tert-Butyl {2-[({[6-chloro-2,4,8,22-tetraazatetracyclo[14.3.1.1(3,7).1(9,13)]docosa-1(20),3(22),4,6,9(21),10,12,16,18-nonaen-12-yl]amino}carbonyl)amino]ethyl}carbamate], the pIC50 in test [1] (Table B1) was 9.21; in test [2] (Table B1), 8.41; in test [3] (Table B1), 7.34; at TYK2 (Table B1), 8.40. Further, the “ALK % of inhibition” value in test [4] (setting [5]) is listed as 12%.

As to `N#Cc1cccc(NC(=O)N2CCC(CC(=O)Nc3ccc4cc3CCc3cncc(c3)Nc3ncc(Cl)c(n3)N4)CC2)c1` [Example A142, 4-(2-{[6-Chloro-2,4,8,18,22-pentaazatetracyclo[14.3.1.1(3,7).1(9,13)]docosa-1(20),3(22),4,6,9(21),10,12,16,18-nonaen-12-yl]amino}-2-oxoethyl)-N-(3-cyanophenyl)piperidine-1-carboxamide bis(trifluoroacetate)], the pIC50 in test [1] (setting [6]) is 8.62; in test [2] (setting [7]) it was 8.32; in test [3] (setting [8]), less than 7.00; at TYK2, 8.19. In addition, the “ALK % of inhibition” value in test [4] (setting [9]) was determined as 41%.

Turning to `NS(=O)(=O)N1CCC(CC(=O)Nc2ccc3cc2CCc2cncc(c2)Nc2ncc(Cl)c(n2)N3)CC1` [Example A78, 2-[1-(Aminosulfonyl)piperidin-4-yl]-N-[6-chloro-2,4,8,18,22pentaazatetracyclo[14.3.1.1(3,7).1(9,13)]docosa-1(20),3(22),4,6,9(21),10,12,16,18-nonaen-12-yl]acetamide bis(trifluoroacetate)], the pIC50 in test [1] (setting [6]) is 9.40; in test [2] (setting [7]) it was 9.52; in test [3] (setting [8]), 7.92; on TYK2, 9.52. Besides, the “ALK % of inhibition” value in test [4] (setting [9]) was 39%.

On to `NS(=O)(=O)N1CCC(CC(=O)Nc2ccc3cc2CCc2cccc(c2)Nc2ncc(Cl)c(n2)N3)CC1` [Example A75, 2-[1-(Aminosulfonyl)piperidin-4-yl]-N-[6-chloro-2,4,8,22-tetraazatetracyclo[14.3.1.1(3,7).1(9,13)]docosa-1(20),3(22),4,6,9(21),10,12,16,18-nonaen-12-yl]acetamide trifluoroacetate], for which the pIC50 in test [1] (setting [6]) was 9.70; in test [2] (setting [7]), 9.70; in test [3] (setting [8]), 8.49; against TYK2 it was 9.52. Also, in test [4] (setting [9]), the “ALK % of inhibition” value came out at 51%.

The values are drawn from patent US8871753B2, “Macrocyclic compounds and their use as kinase inhibitors” (Incyte Corporation, priority 2008, dated 2014).
